Experimental data from patent publication US6660762B2, “Methods and compositions to treat lung diseases” (priority 2001, dated 2003).
Entries after “also recorded” stand apart in the source; their conditions may differ. Where two headings read alike, the source gives them in different places. Marks after values point to notes of the source that are not given here.

How the values were obtained:
C3H/HEJ mice = experiment: Toxicity of aerosolized porphyrins in mice (group bodyweight); format: in vivo
Source text: Toxicity of the three porphyrins were studied. Porphyrins were delivered via aerosols into mice. It is considered that beryllium-lung burdened mice will provide in vivo data for the removal of beryllium via urinary secretion tests.
Aqueous solutions of the three porphyrins were aerosolized using a constant-flow Pulmo-Mist pump and nebulizer syste and delivered into cages each housing five female 20+ week old C3H/HEJ mice over a period of twenty days. The group bodyweights of these mice were measured each morning prior to aerosol treatment. Regimens included multiple, constant dosing and dose escalation. Mice in cages receiving multiple doses of 9 mg of one of the select porphyrins began to lose weight (up to 14%) by the third day of treatment. […] Treatments with two porphyrins generally reflected lower and delayed evidence of toxicity compared to that observed with one of the select porphyrins (phthalocyanine tetrasulfonate porphyrin, meso-tetra (4-carboxyphenyl) porphyrin, meso-tetra (4-sulfonatophenyl) porphyrin). Younger mice (about 6 weeks old) were generally more tolerant than older mice, but the rank order of porphyrin toxicity was the same.

[1] = molecular target: T1, Beryllium bound to oxyhemoglobin (Be—Hb) (Homo sapiens, UniProt P68871+P69905); experiment: Chelation of hemoglobin bound beryllium by porphyrins (removal of beryllium from Be-Hb); format: binding; details: for effect on amount of beryllium associated with hemoglobin (in words): incubation of Be-Hb with porphyrin
T1 construct: purchased Sigma H7379
T1 sequence (P69905 2-142 limits assumed): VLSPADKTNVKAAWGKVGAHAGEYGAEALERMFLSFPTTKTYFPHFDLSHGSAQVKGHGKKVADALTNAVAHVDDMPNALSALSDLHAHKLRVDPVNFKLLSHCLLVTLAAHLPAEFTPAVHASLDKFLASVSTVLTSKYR
T1 sequence (P68871 2-147 limits assumed): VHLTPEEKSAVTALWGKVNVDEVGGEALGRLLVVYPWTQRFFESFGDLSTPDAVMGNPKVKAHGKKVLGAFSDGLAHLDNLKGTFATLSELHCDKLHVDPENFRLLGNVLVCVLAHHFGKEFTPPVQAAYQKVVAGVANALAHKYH
Procedure: Beryllium bound to oxyhemoglobin (Be—Hb) was prepared as described in Section 2.1 (above). To determine if the test porphyrins were able to remove beryllium from hemoglobin, porphyrins were added to the hemoglobin solution at 2.5 times the Be concentration of the solution. One hundred μl of 7.1 mM porphyrin solution (or 100 μl of HBS for controls) was added to 1 ml of […]. This mixture was incubated at 37° C. for 30 minutes. Following incubation, the entire mixture was loaded into a Centricon YM-30 molecular weight cutoff filter. This filter retains molecules with a molecular weight >30,000 (i.e., hemoglobin) and allows smaller molecules (i.e. porphyrin, free beryllium) to pass through. The samples were centrifuged to concentrate hemoglobin on the filter and then washed with 500 μl of HBS to remove any porphyrin or beryllium trapped in the hemoglobin concentrate. Hemoglobin concentrates were collected in 100 μl of HBS according to the manufacturer's instructions. The concentrates were then diluted to 3 mls with HBS. Hemoglobin concentration of each sample was determined spectrophotometrically with Drabkin's reagent. Beryllium content of each sample was determined by ICP-AAS.

[2] = Binding of beryllium to porphyrins by proton NMR in deuterium oxide; details: no buffer
Procedure: Initial experiments utilized HBS prepared in deuterium oxide (deuterated water, D2O) to eliminate the protons of water. This was not successful as the HEPES in the buffer also contains protons that interfered with the analysis. Therefore, experiments were conducted with porphyrins 1-5 dissolved in deuterium oxide. Porphyrins were analyzed in the presence and absence of beryllium-Spectra were collected on a 500 MHz JEOL.

Human hemoglobin = molecular target: T2, Human hemoglobin (Homo sapiens, UniProt P68871+P69905); experiment: Binding of beryllium to various hemoglobins (Sephadex G-25 separation, ICP-AAS); details: incubation at 37° C. for 30 minutes; Be:Hb 2.5:1
T2 construct: purchased Sigma H7379
T2 sequence (P69905 2-142 limits assumed): as the sequence (P69905 2-142 limits assumed) above
T2 sequence (P68871 2-147 limits assumed): as the sequence (P68871 2-147 limits assumed) above
Procedure: These experiments used beryllium nitrate (Aldrich 46,503-8) as a soluble form of beryllium. […] This precipitate was probably an insoluble beryllium phosphate complex. Due to the insolubility of beryllium in PBS at necessary concentrations, experiments were carried out in N-2hydroxyethylpiperazine-N′-2-ethane-sulfonic acid (HEPES)-buffered saline (HBS). HEPES is commonly used as a buffer for biochemical experiments in the physiological pH range. HBS contained 10 mM HEPES, sodium chloride, and potassium chloride, pH 7.4.
Human hemoglobin (Sigma H7379) was dissolved in HBS at a concentration of 40 mg/ml. This hemoglobin was >95% methemoglobin. To reduce the iron and form oxyhemoglobin, 5 mM sodium hydrosulfite was added to the hemoglobin solution. This solution was then dialyzed overnight at 4° C. against HBS to remove residual sodium hydrosulfite. To form carboxyhemoglobin, oxyhemoglobin was gently bubbled with carbon monoxide for 5 minutes. Identity of hemoglobins was confirmed by spectrophotometry prior to experimentation.
Beryllium nitrate was added to a solution of hemoglobin at a molar ratio of 2.5:1 (B e: Hb). This mixture was incubated at 37° C. for 30 minutes. During incubation with beryllium some precipitation of hemoglobin occurred. Precipitate was removed from the samples by centrifugation. Samples of hemoglobin with no beryllium were used as negative controls. Experiments were performed on oxy-, met-, and carboxyhemoglobin.
To isolate beryllium bound to hemoglobin (Be—Hb) from free beryllium, samples were passed through a 1 cm×25 cm Sephadex G-25 column equilibrated in HBS. One milliliter fractions of column eluate were collected. These fractions were diluted to 5 ml with distilled water. The hemoglobin content of each fraction was determined by use of Drabkin's reagent. Beryllium content of each fraction was determined by inductively coupled plasma atomic absorption spectrophotometry (ICP-AAS). A flow chart of this procedure is presented as FIG. 1.

| Molecule | toxicity / safety of aerosol delivery to lungs (in words) (C3H/HEJ mice) | effect on amount of beryllium associated with hemoglobin (in words) [1] | Molar ratio (moles Be:moles Hb) Mean (Human hemoglobin) | μg beryllium/mg hemoglobin Mean (Human hemoglobin) | further results |
| --- | --- | --- | --- | --- | --- |
| O=S(=O)(O)c1ccc(-c2c3nc(c(-c4ccc(S(=O)(=O)O)cc4)c4ccc([nH]4)c(-c4ccc(S(=O)(=O)O)cc4)c4nc(c(-c5ccc(S(=O)(=O)O)cc5)c5ccc2[nH]5)C=C4)C=C3)cc1 [porphyrin 4, meso-tetra (4-sulfonatophenyl) porphyrin] | maybe safely delivered as aerosols | reduced the amount of beryllium associated with hemoglobin | – | – | toxicity / safety of aerosol delivery to lungs (in words) (C3H/HEJ mice; listed as meso-tetra-(4-sulfonate phenyl)): non-toxic |
| phthalocyanine tetrasulfonate [porphyrin 3] | maybe safely delivered as aerosols | reduced the amount of beryllium associated with hemoglobin | – | – | change in proton NMR spectra on addition of beryllium [2]: suggest a reaction of beryllium with the porphyrin; reduction of the amount of beryllium associated with hemoglobin ([1]; molar excess of porphyrin, 30 minutes at 37° C.): 59% |
| O=C(O)c1ccc(-c2c3nc(c(-c4ccc(C(=O)O)cc4)c4ccc([nH]4)c(-c4ccc(C(=O)O)cc4)c4nc(c(-c5ccc(C(=O)O)cc5)c5ccc2[nH]5)C=C4)C=C3)cc1 [porphyrin 2, meso-tetra (4-carboxyphenyl) porphyrin] | maybe safely delivered as aerosols; also recorded: non-toxic | reduced the amount of beryllium associated with hemoglobin | – | – | – |
| hemin [porphyrin 1] | – | reduced the amount of beryllium associated with hemoglobin | – | – | – |
| Methemoglobin: Human hemoglobin (Sigma H7379), >95% methemoglobin, iron in the +III oxidation state | – | – | 0.13a moles Be:moles Hb | 0.016^a μg beryllium/mg hemoglobin | – |
| Oxyhemoglobin: Human hemoglobin reduced with sodium hydrosulfite, iron in the +II oxidation state | – | – | 2.25 moles Be:moles Hb | 0.438 μg beryllium/mg hemoglobin | – |
| Carboxyhemoglobin: oxyhemoglobin gently bubbled with carbon monoxide for 5 minutes | – | – | 1.88 moles Be:moles Hb | 0.351 μg beryllium/mg hemoglobin | – |
| magnesium phthalocyanine tetrasulfonate tetra sodium salt porphyrin [porphyrin 5] | – | reduced the amount of beryllium associated with hemoglobin | – | – | change in proton NMR spectra on addition of beryllium [2]: suggest a reaction of beryllium with the porphyrin |
